This passage reports EC50 results from patent US20130157953A1, “TREATMENT OF CARDIAC CONDITIONS” (Zealand Pharma A/S, priority 2010, published 2013).

Numbered stars: 1 amine (or outer) side, 2 acyl side, 3 side chain; on linkers, the order of the positions; unused ones are H or OH. Bridge positions count the residues as written; N and C are the ends. Square brackets hold non-standard residues; d marks the D form. Side chains are listed from the residue outwards. Peptide text beside a SMILES is read from it. * marks the point of attachment. γGlu = O=C(O)[C@H](CCC(=O)[*:2])N[*:1]; Palmitoyl = CCCCCCCCCCCCCCCC(=O)*; Aib = CC(C)(N)C(=O)O

The EC50 is the concentration giving half of the maximal effect.

T2 sequence (P47871 26-477): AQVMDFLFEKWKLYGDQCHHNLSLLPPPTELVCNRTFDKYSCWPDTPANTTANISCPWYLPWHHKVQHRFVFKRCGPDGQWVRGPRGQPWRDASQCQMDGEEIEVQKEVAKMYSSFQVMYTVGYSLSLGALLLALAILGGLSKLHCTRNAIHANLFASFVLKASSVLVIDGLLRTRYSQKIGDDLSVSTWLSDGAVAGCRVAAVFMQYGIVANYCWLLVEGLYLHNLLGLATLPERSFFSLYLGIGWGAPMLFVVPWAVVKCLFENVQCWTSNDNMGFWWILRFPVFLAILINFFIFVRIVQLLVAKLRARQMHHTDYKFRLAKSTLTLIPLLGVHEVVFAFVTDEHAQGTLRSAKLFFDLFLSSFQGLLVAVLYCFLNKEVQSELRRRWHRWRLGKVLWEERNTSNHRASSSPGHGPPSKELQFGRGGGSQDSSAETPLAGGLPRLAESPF
T1 sequence (P43220 24-463): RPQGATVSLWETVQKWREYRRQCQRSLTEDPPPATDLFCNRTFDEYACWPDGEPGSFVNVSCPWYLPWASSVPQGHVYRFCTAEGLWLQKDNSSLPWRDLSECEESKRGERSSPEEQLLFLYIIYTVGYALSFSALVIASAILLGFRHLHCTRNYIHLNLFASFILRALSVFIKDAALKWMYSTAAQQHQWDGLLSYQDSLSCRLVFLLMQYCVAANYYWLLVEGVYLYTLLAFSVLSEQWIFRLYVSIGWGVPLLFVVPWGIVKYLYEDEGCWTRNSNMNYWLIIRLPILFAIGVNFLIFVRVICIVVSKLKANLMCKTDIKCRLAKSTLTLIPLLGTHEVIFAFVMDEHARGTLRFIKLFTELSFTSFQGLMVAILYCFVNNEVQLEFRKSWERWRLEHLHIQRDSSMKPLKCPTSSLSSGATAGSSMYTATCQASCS

The first assay addresses T1, human GLP-1R (Homo sapiens, UniProt P43220).
T1 construct: expressed in transfected cells; host or cells: HEK293
Nature of the assay: cAMP formation in HEK293 cells expressing human GLP-1R. The assay is classed as cell-based. The note with it: 15 min at 37° C. The source says:
(§1) Similarly, activation of the GLP-1 receptor by a GLP-1 agonist will stimulate cellular cAMP formation. Thus, production of cAMP in suitable cells expressing one of these two receptors can be used to monitor the relevant receptor activity.
(§2) The skilled person will be aware of suitable assay formats, and examples are provided below. […] (Where sequences of precursor proteins are referred to, it should of course be understood that assays may make use of the mature protein, lacking the signal sequence).
(§3) On the day of analysis, growth medium was removed and the cells washed once with 200 μl Tyrode buffer. Cells were incubated in […] containing increasing concentrations of test peptides, 100 μM IBMX, and 6 mM glucose for 15 min at 37° C. The reaction was stopped by addition of 25 μl 0.5 M HCl and incubated on ice for 60 min. The cAMP content was estimated using the FlashPlate® cAMP kit from Perkin-Elmer. EC50 values were estimated by computer aided curve fitting.
Turning to `CC(C)C[C@H](NC(=O)[C@H](CC(C)C)NC(=O)[C@H](Cc1c[nH]c2ccccc12)NC(=O)[C@H](CCC(=O)O)NC(=O)[C@@H](NC(=O)[C@H](Cc1ccccc1)NC(=O)[C@H](CC(=O)O)NC(=O)[C@H](Cc1c[nH]cn1)NC(=O)[C@H](C)NC(=O)[C@H](C)NC(=O)[C@H](CCCCN)NC(=O)[C@H](CO)NC(=O)[C@H](CC(=O)O)NC(=O)[C@H](CC(C)C)NC(=O)[C@H](Cc1ccc(O)cc1)NC(=O)[C@H](CCCCN)NC(=O)[C@H](CO)NC(=O)[C@H](Cc1ccc(O)cc1)NC(=O)[C@H](CC(=O)O)NC(=O)[C@H](CO)NC(=O)[C@@H](NC(=O)[C@H](Cc1ccccc1)NC(=O)[C@@H](NC(=O)CNC(=O)[C@H](CCC(N)=O)NC(=O)[C@@H](CO)NC(=O)[C@@H](N)Cc1c[nH]cn1)[C@@H](C)O)[C@@H](C)O)C(C)C)C(=O)N[C@@H](CCCNC(=N)N)C(=O)N[C@@H](C)C(N)=O` [Compound 44] (H-H[dS]QGTFTSDYSKYLDSKAAHDFVEWLLRA-NH2), a half-maximal response (EC50) required 0.09 nM. Same read-out and setting: the figure for `CCCCCCCCCCCCCCCC(=O)N[C@@H](CCC(=O)NCCCC[C@H](NC(=O)[C@H](CC(=O)O)NC(=O)[C@H](CC(C)C)NC(=O)[C@H](Cc1ccc(O)cc1)NC(=O)[C@H](CCCCN)NC(=O)[C@H](CO)NC(=O)[C@H](Cc1ccc(O)cc1)NC(=O)[C@H](CC(=O)O)NC(=O)[C@H](CO)NC(=O)[C@@H](NC(=O)[C@H](Cc1ccccc1)NC(=O)[C@@H](NC(=O)CNC(=O)[C@H](CCC(N)=O)NC(=O)[C@H](CO)NC(=O)[C@@H](N)Cc1c[nH]cn1)[C@@H](C)O)[C@@H](C)O)C(=O)N[C@@H](CCCCN)C(=O)N[C@@H](C)C(=O)N[C@@H](C)C(=O)N[C@@H](Cc1c[nH]cn1)C(=O)N[C@@H](CC(=O)O)C(=O)N[C@@H](Cc1ccccc1)C(=O)N[C@H](C(=O)N[C@@H](CCC(=O)O)C(=O)N[C@@H](Cc1c[nH]c2ccccc12)C(=O)N[C@@H](CC(C)C)C(=O)N[C@@H](CC(C)C)C(=O)N[C@@H](CCCNC(=N)N)C(=O)N[C@@H](C)C(N)=O)C(C)C)C(=O)O` [Compound 202] (H-HSQGTFTSDYSKYLDK([γGlu-Palmitoyl])KAAHDFVEWLLRA-NH2) is 0.2 nM; for `CCCCCCCCCCCCCCCC(=O)N[C@@H](CCC(=O)NCCCC[C@H](NC(=O)[C@H](CO)NC(=O)[C@H](CC(=O)O)NC(=O)[C@H](CC(C)C)NC(=O)[C@H](Cc1ccc(O)cc1)NC(=O)[C@H](CCCCN)NC(=O)[C@H](CO)NC(=O)[C@H](Cc1ccc(O)cc1)NC(=O)[C@H](CC(=O)O)NC(=O)[C@H](CO)NC(=O)[C@@H](NC(=O)[C@H](Cc1ccccc1)NC(=O)[C@@H](NC(=O)CNC(=O)[C@H](CCC(N)=O)NC(=O)C(C)(C)NC(=O)[C@@H](N)Cc1c[nH]cn1)[C@@H](C)O)[C@@H](C)O)C(=O)N[C@@H](C)C(=O)N[C@@H](C)C(=O)N[C@@H](Cc1c[nH]cn1)C(=O)N[C@@H](CC(=O)O)C(=O)N[C@@H](Cc1ccccc1)C(=O)N[C@H](C(=O)N[C@H]1CCC(=O)NCCCC[C@@H](C(=O)N[C@@H](C)C(N)=O)NC(=O)[C@H](CC(C)C)NC(=O)[C@H](CC(C)C)NC(=O)[C@H](Cc2c[nH]c3ccccc23)NC1=O)C(C)C)C(=O)O` [Compound 210] (H-H[Aib]QGTFTSDYSKYLDSK([γGlu-Palmitoyl])AAHDFVEWLLKA-NH2; lactam 24-28) it is 0.08 nM; for `CCCCCCCCCCCCCCCC(=O)NCCC(=O)NCCCC[C@H](NC(=O)[C@H](CO)NC(=O)[C@H](CC(=O)O)NC(=O)[C@H](CC(C)C)NC(=O)[C@H](Cc1ccc(O)cc1)NC(=O)[C@H](CCCCN)NC(=O)[C@H](CO)NC(=O)[C@H](Cc1ccc(O)cc1)NC(=O)[C@H](CC(=O)O)NC(=O)[C@H](CO)NC(=O)[C@@H](NC(=O)[C@H](Cc1ccccc1)NC(=O)[C@@H](NC(=O)CNC(=O)[C@H](CCC(N)=O)NC(=O)C(C)(C)NC(=O)[C@@H](N)Cc1c[nH]cn1)[C@@H](C)O)[C@@H](C)O)C(=O)N[C@@H](C)C(=O)N[C@@H](C)C(=O)N[C@@H](Cc1c[nH]cn1)C(=O)N[C@@H](CC(=O)O)C(=O)N[C@@H](Cc1ccccc1)C(=O)N[C@H](C(=O)N[C@@H](CCC(=O)O)C(=O)N[C@@H](Cc1c[nH]c2ccccc12)C(=O)N[C@@H](CC(C)C)C(=O)N[C@@H](CC(C)C)C(=O)N[C@@H](CO)C(=O)N[C@@H](C)C(N)=O)C(C)C` [Compound 215] it is 0.23 nM. As to `CCCCCCCCCCCCCCCC(=O)NCCCCCCCC(=O)NCCCC[C@H](NC(=O)[C@H](CO)NC(=O)[C@H](CC(=O)O)NC(=O)[C@H](CC(C)C)NC(=O)[C@H](Cc1ccc(O)cc1)NC(=O)[C@H](CCCCN)NC(=O)[C@H](CO)NC(=O)[C@H](Cc1ccc(O)cc1)NC(=O)[C@H](CC(=O)O)NC(=O)[C@H](CO)NC(=O)[C@@H](NC(=O)[C@H](Cc1ccccc1)NC(=O)[C@@H](NC(=O)CNC(=O)[C@H](CCC(N)=O)NC(=O)C(C)(C)NC(=O)[C@@H](N)Cc1c[nH]cn1)[C@@H](C)O)[C@@H](C)O)C(=O)N[C@@H](C)C(=O)N[C@@H](C)C(=O)N[C@@H](Cc1c[nH]cn1)C(=O)N[C@@H](CC(=O)O)C(=O)N[C@@H](Cc1ccccc1)C(=O)N[C@H](C(=O)N[C@@H](CCC(=O)O)C(=O)N[C@@H](Cc1c[nH]c2ccccc12)C(=O)N[C@@H](CC(C)C)C(=O)N[C@@H](CC(C)C)C(=O)N[C@@H](CO)C(=O)N[C@@H](C)C(N)=O)C(C)C` [Compound 216], the midpoint of the response, the EC50, lay at 0.24 nM. On the same count and under the same terms, the figure for `CCCCCCCCCCCCCCCC(=O)NCCCC[C@H](N)C(=O)NCCCC[C@H](NC(=O)[C@H](CO)NC(=O)[C@H](CC(=O)O)NC(=O)[C@H](CC(C)C)NC(=O)[C@H](Cc1ccc(O)cc1)NC(=O)[C@H](CCCCN)NC(=O)[C@H](CO)NC(=O)[C@H](Cc1ccc(O)cc1)NC(=O)[C@H](CC(=O)O)NC(=O)[C@H](CO)NC(=O)[C@@H](NC(=O)[C@H](Cc1ccccc1)NC(=O)[C@@H](NC(=O)CNC(=O)[C@H](CCC(N)=O)NC(=O)C(C)(C)NC(=O)[C@@H](N)Cc1c[nH]cn1)[C@@H](C)O)[C@@H](C)O)C(=O)N[C@@H](C)C(=O)N[C@@H](C)C(=O)N[C@@H](Cc1c[nH]cn1)C(=O)N[C@@H](CC(=O)O)C(=O)N[C@@H](Cc1ccccc1)C(=O)N[C@H](C(=O)N[C@@H](CCC(=O)O)C(=O)N[C@@H](Cc1c[nH]c2ccccc12)C(=O)N[C@@H](CC(C)C)C(=O)N[C@@H](CC(C)C)C(=O)N[C@@H](CO)C(=O)N[C@@H](C)C(N)=O)C(C)C` [Compound 217] is 0.09 nM; for `CSCC[C@H](NC(=O)[C@H](CC(C)C)NC(=O)[C@H](Cc1c[nH]c2ccccc12)NC(=O)[C@@H](NC(=O)[C@H](Cc1ccccc1)NC(=O)[C@H](CC(=O)O)NC(=O)[C@@H]1CCC(=O)NCCCC[C@H](NC(=O)[C@H](CC(=O)O)NC(=O)[C@H](CC(C)C)NC(=O)[C@H](Cc2ccc(O)cc2)NC(=O)[C@H](CCCCN)NC(=O)[C@H](CO)NC(=O)[C@H](Cc2ccc(O)cc2)NC(=O)[C@H](CC(=O)O)NC(=O)[C@H](CO)NC(=O)[C@@H](NC(=O)[C@H](Cc2ccccc2)NC(=O)[C@@H](NC(=O)CNC(=O)[C@H](CCC(N)=O)NC(=O)[C@H](CO)NC(=O)[C@@H](N)Cc2c[nH]cn2)[C@@H](C)O)[C@@H](C)O)C(=O)N[C@@H](CCCNC(=N)N)C(=O)N[C@@H](CCCNC(=N)N)C(=O)N[C@@H](C)C(=O)N1)C(C)C)C(=O)N[C@@H](CC(N)=O)C(=O)N[C@H](C(N)=O)[C@@H](C)O` [Compound 257] (H-HSQGTFTSDYSKYLDKRRAEDFVWLMNT-NH2; lactam 16-20) it is 0.1 nM; for `CCCCCCCCCCCCCCCC(=O)N[C@@H](CCC(=O)NCCCC[C@H](NC(=O)[C@H](CO)NC(=O)[C@H](CC(=O)O)NC(=O)[C@H](CC(C)C)NC(=O)[C@H](Cc1ccc(O)cc1)NC(=O)[C@H](CCCCN)NC(=O)[C@H](CO)NC(=O)[C@H](Cc1ccc(O)cc1)NC(=O)[C@H](CC(=O)O)NC(=O)[C@H](CO)NC(=O)[C@@H](NC(=O)[C@H](Cc1ccccc1)NC(=O)[C@@H](NC(=O)CNC(=O)[C@H](CCC(N)=O)NC(=O)[C@H](CO)NC(=O)[C@@H](N)Cc1c[nH]cn1)[C@@H](C)O)[C@@H](C)O)C(=O)N[C@@H](C)C(=O)N[C@@H](C)C(=O)N[C@@H](Cc1c[nH]cn1)C(=O)N[C@@H](CC(=O)O)C(=O)N[C@@H](Cc1ccccc1)C(=O)N[C@H](C(=O)N[C@@H](CCC(=O)O)C(=O)N[C@@H](Cc1c[nH]c2ccccc12)C(=O)N[C@@H](CC(C)C)C(=O)N[C@@H](CC(C)C)C(=O)N[C@@H](CCCNC(=N)N)C(=O)N[C@@H](C)C(N)=O)C(C)C)C(=O)O` [Compound 262] (H-HSQGTFTSDYSKYLDSK([γGlu-Palmitoyl])AAHDFVEWLLRA-NH2) it is 0.11 nM.

“H-HSQGTFTSDYSRYLDSRRAKDFVWLLNT-NH2 [Compound 252]” came in with an EC50 of 0.5 nM.

The next assay addresses T2, human glucagon receptor (Homo sapiens, UniProt P47871).
T2 construct: expressed in transfected cells; host or cells: HEK293
Nature of the assay: cAMP formation in HEK293 cells expressing the human glucagon receptor. The class given is cell-based. The note with it: 15 min at 37° C., read-out: EC50 (nM) GuR.
Description: as §1, §2, §3
A general note: cAMP levels reflect the balance of adenylyl cyclase and phosphodiesterase activity.
Take “H-HSQGTFTSDYSKYLDSKAAHDFVEWLLRA-NH2 [Compound 48]”: the EC50 was found to be 0.06 nM. On to “H-HSQGTFTSDYSKYLDSKAAQDFVWLMNT-NH2 [Compound 260]”, for which the EC50 is 0.07 nM. As to “H-HSQGTFTSDYSRYLDERRAQDFVWLMNT-NH2 [Compound 258]”, the EC50 stood at 0.06 nM.
